HELM strings list units from the 5' end as sugar, base in round brackets, then linkage (d deoxyribose, r ribose, m 2'-O-methyl, p phosphodiester). Strings are as the collection lists them, not checked against the first reports. ss, as = sense and antisense strand; [lna] = locked nucleic acid (LNA); [fl2r] = 2'-fluoro
Details: siRNA
Note: test system not given here.

Q: With “RNA1{r(C)p.r(C)p.r(G)p.r(A)p.r(A)p.r(G)p.r(A)p.r(C)p.r(G)p.r(A)p.r(A)p.r(G)p.r(C)p.[fl2r](U)p.r(A)p.[fl2r](U)p.r(G)p.r(A)p.r(A)p.r(T)p.r(T)}|RNA2{r(U)p.r(U)p.[fl2r](C)p.r(A)p.[fl2r](U)p.r(A)p.r(G)p.r(C)p.r(U)p.r(U)p.r(C)p.r(G)p.r(U)p.r(C)p.r(U)p.r(U)p.r(C)p.r(G)p.r(G)p.r(T)p.r(T)}$$$RNA1{StrandType:ss}|RNA2{StrandType:as}$” as the substance, how does the target mRNA knockdown read?
A: 46%

Q: With “RNA1{r(A)p.r(G)p.r(C)p.r(G)p.r(G)p.r(G)p.r(G)p.m(U)p.r(A)p.r(U)p.r(G)p.r(A)p.r(A)p.r(G)p.r(A)p.r(G)p.r(C)p.r(U)p.r(U)p.r(T)p.r(T)}|RNA2{r(A)p.r(A)p.r(G)p.r(C)p.r(U)p.r(C)p.r(U)p.r(U)p.r(C)p.r(A)p.m(U)p.r(A)p.r(C)p.r(C)p.r(C)p.r(C)p.r(G)p.r(C)p.r(U)p.r(T)p.r(T)}$$$RNA1{StrandType:ss}|RNA2{StrandType:as}$” as the substance, how does the target mRNA knockdown read?
A: 82%

Q: For “RNA1{m(G)p.r(G)p.m(C)p.r(C)p.m(A)p.r(A)p.m(A)p.r(G)p.m(U)p.r(A)p.m(A)p.r(U)p.m(C)p.r(G)p.m(U)p.r(G)p.m(G)p.r(U)p.m(U)p.r(T)p.r(T)}|RNA2{r(A)p.r(A)p.r(C)p.r(C)p.r(A)p.r(C)p.r(G)p.r(A)p.r(U)p.r(U)p.r(A)p.r(C)p.r(U)p.r(U)p.r(U)p.r(G)p.r(G)p.r(C)p.r(C)p.r(T)p.r(T)}$$$RNA1{StrandType:ss}|RNA2{StrandType:as}$”, which target mRNA knockdown is on record?
A: 37%

Q: Which target mRNA knockdown does the source give for “RNA1{r(G)p.r(C)p.m(U)p.r(G)p.r(A)p.r(G)p.r(G)p.r(A)p.r(A)p.r(A)p.r(G)p.r(G)p.m(G)p.r(A)p.m(C)p.r(A)p.r(U)p.r(C)p.r(U)p.r(T)p.r(T)}|RNA2{r(A)p.r(G)p.r(A)p.m(U)p.r(G)p.r(U)p.r(C)p.r(C)p.r(C)p.r(U)p.r(U)p.r(U)p.r(C)p.r(C)p.r(U)p.m(C)p.r(A)p.r(G)p.r(C)p.r(T)p.r(T)}$$$RNA1{StrandType:ss}|RNA2{StrandType:as}$” here?
A: 76%

Q: For “RNA1{[lna](G)p.r(C)p.r(A)p.r(G)p.r(C)p.r(A)p.r(C)p.r(G)p.r(A)p.r(C)p.r(U)p.r(U)p.r(C)p.r(U)p.r(U)p.r(C)p.r(A)p.r(A)p.r(G)p.r(U)p.r(U)}|RNA2{r(C)p.m(U)p.r(U)p.r(G)p.r(A)p.r(A)p.r(G)p.r(A)p.r(A)p.r(G)p.r(U)p.r(C)p.r(G)p.r(U)p.r(G)p.r(C)p.r(U)p.r(G)p.r(C)p.r(U)p.r(U)}$$$RNA1{StrandType:ss}|RNA2{StrandType:as}$”, which target mRNA knockdown is on record?
A: 68.6%

Q: Which target mRNA knockdown does the source give for “RNA1{[lna](G)p.r(G)p.r(C)p.r(C)p.r(U)p.r(U)p.r(U)p.r(C)p.r(A)p.r(C)p.r(U)p.r(A)p.r(C)p.r(U)p.r(C)p.r(C)p.r(U)p.r(A)p.r(C)p.[lna](G)p.[lna](A)}|RNA2{r(G)p.r(U)p.r(A)p.r(G)p.r(G)p.r(A)p.r(G)p.r(U)p.r(A)p.r(G)p.r(U)p.r(G)p.r(A)p.r(A)p.r(A)p.r(G)p.r(G)p.r(C)p.r(C)p.r(A)p.r(G)}$$$RNA1{StrandType:ss}|RNA2{StrandType:as}$” here?
A: 83%

Q: Which target mRNA knockdown does the source give for “RNA1{r(A)p.m(C)p.r(A)p.r(G)p.r(A)p.r(A)p.r(A)p.r(G)p.r(A)p.r(G)p.r(U)p.r(U)p.r(C)p.r(G)p.r(A)p.r(G)p.r(G)p.r(A)p.r(G)p.r(T)p.r(T)}|RNA2{r(C)p.r(U)p.r(C)p.r(C)p.r(U)p.r(C)p.r(G)p.r(A)p.r(A)p.r(C)p.r(U)p.r(C)p.r(U)p.r(U)p.r(U)p.r(C)p.m(U)p.r(G)p.r(U)p.r(T)p.r(T)}$$$RNA1{StrandType:ss}|RNA2{StrandType:as}$” here?
A: 64%

Q: With “RNA1{r(A)p.r(G)p.r(A)p.r(G)p.r(U)p.r(U)p.r(G)p.r(G)p.r(G)p.r(A)p.r(U)p.r(U)p.r(A)p.r(G)p.r(G)p.r(G)p.r(C)p.r(U)p.r(U)p.r(T)p.r(T)}|RNA2{m(A)p.r(A)p.m(G)p.r(C)p.m(C)p.r(C)p.m(U)p.r(A)p.m(A)p.r(U)p.m(C)p.r(C)p.m(C)p.r(A)p.m(A)p.r(C)p.m(U)p.r(C)p.m(U)p.r(T)p.r(T)}$$$RNA1{StrandType:ss}|RNA2{StrandType:as}$” as the substance, how does the target mRNA knockdown read?
A: 45%
